Among the data in US20250230165A1, “HETEROCYCLIC COMPOUNDS FOR USE IN THE TREATMENT OF CANCER” (ARTIOS PHARMA LIMITED, priority 2021, published 2025) are Kinact/Kl values, retold here.

The target in the test is T1, Human Polθ polymerase domain (aa1820-2590) (Homo sapiens, UniProt O75417).
T1 construct: Human Polθ polymerase domain (aa1820-2590) was expressed in E. coli; made in house; host or cells: E. coli
T1 sequence (O75417 1820-2590): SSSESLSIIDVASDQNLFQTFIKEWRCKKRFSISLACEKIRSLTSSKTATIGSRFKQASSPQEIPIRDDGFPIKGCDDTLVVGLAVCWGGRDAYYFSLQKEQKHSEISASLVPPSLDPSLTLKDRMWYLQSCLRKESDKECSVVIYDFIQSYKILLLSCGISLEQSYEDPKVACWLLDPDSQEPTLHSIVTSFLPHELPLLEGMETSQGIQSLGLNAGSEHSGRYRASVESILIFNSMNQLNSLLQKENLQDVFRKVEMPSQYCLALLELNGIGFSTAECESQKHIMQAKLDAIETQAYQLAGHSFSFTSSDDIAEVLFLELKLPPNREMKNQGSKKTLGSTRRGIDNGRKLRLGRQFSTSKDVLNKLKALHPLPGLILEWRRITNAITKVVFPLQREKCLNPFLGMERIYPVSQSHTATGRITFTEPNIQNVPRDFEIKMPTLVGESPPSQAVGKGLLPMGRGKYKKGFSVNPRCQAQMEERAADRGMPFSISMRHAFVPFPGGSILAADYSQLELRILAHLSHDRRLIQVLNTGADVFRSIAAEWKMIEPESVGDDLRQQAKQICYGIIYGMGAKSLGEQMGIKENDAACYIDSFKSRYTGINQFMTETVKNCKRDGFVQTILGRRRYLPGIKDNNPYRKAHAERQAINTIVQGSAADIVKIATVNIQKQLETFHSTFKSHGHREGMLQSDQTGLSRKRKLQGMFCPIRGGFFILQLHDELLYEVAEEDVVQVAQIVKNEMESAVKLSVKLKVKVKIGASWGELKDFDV
Kind of test: Polθ Polymerase Domain Kinact/KI Assay (PicoGreen). Type of test: biochemical. The following applies: 0.8 nM Polθ, 100 nM DNA substrate, kobs vs [I] fit for 2-step covalent inhibitor. As for the experimental part:
Polθ Polymerase Domain Kinact/KI Assay
A PicoGreen assay was used to measure the Kinact and KI values of covalent compounds that inhibit the activity of Polθ in vitro.
Human Polθ polymerase domain (aa1820-2590) was expressed in E. coli, purified, aliquoted and stored at −80° C. until required. Polθ substrate was generated from a 1.2:1 mix of DNA II Short to DNA II Long to give a final concentration of […] substrate in annealing buffer (20 mM Tris pH 7.5, 50 mM NaCl). The substrate was heated in […] aliquots to 95° C. in a heating block for 5 min before the heating block switched off, the reaction left to cool to rt and stored at −20° C. until required.
Assay measurements were performed with 1× buffer comprising 25 mM Tris pH 7.5, 12.5 mM NaCl, […], 5% (v/v) glycerol, 0.01% v/v Triton x-100, 0.1 mg/ml BSA, 1 mM DTT. Test compounds were prepared by dilution in 100% DMSO to give a 12 μM intermediate stock of each (100× final top concentration). 100 nL of 23×1:1.5-fold serial dilutions and a DMSO only control were dispensed using the Tecan dispenser into Greiner 384 well black low volume plates (product code 784076). DMSO concentration was maintained at 1% of the final assay volume by back filling with DMSO.
2× Working stock of substrate (200 nM of DNA substrate and […] dNTPs) and enzyme ([…] PolΘ) were made up in assay buffer. 5 μL/well of both enzyme and substrate 2× solutions were dispensed using a Tempest dispenser (Formulatrix) into assay plates that had been pre-dispensed with compound to give a final assay concentration of 100 nM DNA substrate, […] dNTPs and 0.8 nM Polθ. To stop the reaction, […] of a solution containing 25 mM Tris-HCl pH 7.5 and 20 mM EDTA was added at […] (t=0, 2.5, 5, 7.5, 10, 12.5, 15, 20, 25, 30, 35, 40, 45, 50, 55 and 60 min) using the Tempest's time delay function. The plates were covered during the time course to prevent evaporation. After completing the assay, 5 μL of detection reagent (25 mM Tris-HCl pH 7.5 and 2.5% (v/v) PicoGreen) was dispensed into the wells using a Tempest liquid handler (Formulatrix) and plates subsequently read on the CLARIOstar Plus (BMG Labtech) using the default optical settings for fluorescein and the auto gain/focus settings.
All data analysis was carried out using GraphPad Prism V.8 (GraphPad Software Inc, San Diego, CA) Time course data for each inhibitor concentration was fitted to equation 1 to determine kobs values.^1 Any time points where the control (DMSO alone) reaction was no longer linear were excluded from the analysis. 1) Evaluation of Enzyme Inhibitors in Drug Discovery (Ch9), R. A Copeland, Wiley, 2nd Edition 2013.
A secondary plot of kobs vs [I] is used to determine the Kinact and KI parameters (for a 2-step covalent inhibitor) by fitting to equation 2.^1

Regarding `C=CC(=O)N1CC(N2CC[C@@H](CCN3C[C@H]4CC(=O)N(c5cc(C(F)(F)F)cc(C)n5)[C@@H]4C(=O)N(C)c4cccc(Cl)c43)C2)C1` [Example 220, (3aR,11aS)-5-(2-((S)-1-(1-acryloylazetidin-3-yl)pyrrolidin-3-yl)ethyl)-6-chloro-10-methyl-1-(6-methyl-4-(trifluoromethyl)pyridin-2-yl)-1,3a,4,5,10,11a-hexahydro-2H-benzo[b]pyrrolo [2,3-f][1,4] diazocine-2,11(3H)-dione], the Kinact/Kl came out at 3.66e+06 M⁻¹ s⁻¹.

`C=CC(=O)N1CC2(CN(CCN3C[C@H]4CC(=O)N(c5cc(C(F)(F)F)cc(C)n5)[C@@H]4C(=O)N(C)c4cccc(F)c43)CCN2C(C)=O)C1` [Example 36, (3aR,11aS)-5-(2-(5-acetyl-2-acryloyl-2,5,8-triazaspiro[3.5]nonan-8-yl)ethyl)-6-fluoro-10-methyl-1-(6-methyl-4-(trifluoromethyl)pyridin-2-yl)-1,3a,4,5,10,11a-hexahydro-2H-benzo[b]pyrrolo[2,3-f][1,4]diazocine-2,11(3H)-dione] registered a Kinact/Kl of 1.47e+06 M⁻¹ s⁻¹.

On to `C=CC(=O)N1C[C@H]2CN(CCN3C[C@H]4CC(=O)N(c5cc(C(F)(F)F)cc(C)n5)[C@@H]4C(=O)N(C)c4cccc(F)c43)CCN2[C@@H](C)C1` [Example 63b, (3aR,11aS)-5-(2-((6S/R,9aR/S)-8-acryloyl-6-methyloctahydro-2H-pyrazino[1,2-a]pyrazin-2-yl)ethyl)-6-fluoro-10-methyl-1-(6-methyl-4-(trifluoromethyl)pyridin-2-yl)-1,3a,4,5,10,11a-hexahydro-2H-benzo[b]pyrrolo[2,3-f][1,4]diazocine-2,11(3H)-dione], for which the Kinact/Kl stood at 190000 M⁻¹ s⁻¹.

Compound `C=CC(=O)N1CC[C@@H](O)[C@H](N(C)CCN2C[C@H]3CC(=O)N(c4cc(C(F)(F)F)cc(C)n4)[C@@H]3C(=O)N(C)c3cccc(Cl)c32)C1` (relative stereo) [Example 113, (3aR,11aS)-5-(2-(((rel-trans)-1-acryloyl-4-hydroxypiperidin-3-yl)(methyl)amino)ethyl)-6-chloro-10-methyl-1-(6-methyl-4-(trifluoromethyl)pyridin-2-yl)-1,3a,4,5,10,11a-hexahydro-2H-benzo[b]pyrrolo[2,3-f][1,4]diazocine-2,11(3H)-dione] yielded a Kinact/Kl of 1.72e+06 M⁻¹ s⁻¹.

Compound `CC#CC(=O)N1CCn2cc(CN3C[C@H]4CC(=O)N(c5cc(C(F)(F)F)cc(C)n5)[C@@H]4C(=O)N(C)c4cccc(C)c43)nc2C1` [Example 201, (3aR,11aS)-5-((7-(but-2-ynoyl)-5,6,7,8-tetrahydro-imidazo[1,2-a]pyr-azin-2-yl)methyl)-6,10-dimethyl-1-(6-methyl-4-(tri-fluoromethyl)pyr-idin-2-yl)-1,3a,4,5,10,11a-hexa-hydro-2H-benzo [b]pyrrolo[2,3-f] [1,4]diazocine-2,11(3H)-dione] displayed a Kinact/Kl of 2.8e+06 M⁻¹ s⁻¹.

`C=CC(=O)N1CC(N2CCN(CCN3C[C@H]4CC(=O)N(c5cc(C(F)(F)F)cc(C)n5)[C@@H]4C(=O)N(C)c4cc(F)cc(F)c43)CC2)C1` [Example 16, (3aR,11aS)-5-(2-(4-(1-acryloylazetidin-3-yl)piperazin-1-yl)ethyl)-6,8-difluoro-10-methyl-1-(6-methyl-4-(trifluoromethyl)pyridin-2-yl)-1,3a,4,5,10,11a-hexahydro-2H-benzo[b]pyrrolo[2,3-f][1,4]diazocine-2,11(3H)-dione]: the Kinact/Kl amounted to 130000 M⁻¹ s⁻¹.

`C=CC(=O)N1C[C@H]2CN(CCN3C[C@H]4CC(=O)N(c5cc(C(F)(F)F)cc(C)n5)[C@@H]4C(=O)N(C)c4cccc(F)c43)CCN2[C@H](C)C1` (relative stereo) [Example 64a, (3aR,11aS)-5-(2-((6R/S,9aR/S)-8-acryloyl-6-methyloctahydro-2H-pyrazino[1,2-a]pyrazin-2-yl)ethyl)-6-fluoro-10-methyl-1-(6-methyl-4-(trifluoromethyl)pyridin-2-yl)-1,3a,4,5,10,11a-hexahydro-2H-benzo[b]pyrrolo[2,3-f][1,4]diazocine-2,11(3H)-dione] gave a Kinact/Kl of 2.06e+06 M⁻¹ s⁻¹.

`C=CC(=O)N1CCN2CCN(C(=O)CN3C[C@H]4CC(=O)N(c5cc(C(F)(F)F)cc(C)n5)[C@@H]4C(=O)N(C)c4cccc(F)c43)CC2C1` (mixture of isomers) [Example 76b, (3aR,11aS)-5-(2-((S/R)-8-acryloyloctahydro-2H-pyrazino[1,2-a]pyrazin-2-yl)-2-oxoethyl)-6-fluoro-10-methyl-1-(6-methyl-4-(trifluoromethyl)pyridin-2-yl)-1,3a,4,5,10,11a-hexahydro-2H-benzo[b]pyrrolo[2,3-f][1,4]diazocine-2,11(3H)-dione]: the Kinact/Kl was 940000 M⁻¹ s⁻¹.

For `C=CC(=O)N1CC2(CN(CCN3C[C@H]4CC(=O)N(c5cc(C(F)(F)F)cc(C)n5)[C@@H]4C(=O)N(C)c4cccc(F)c43)C[C@H](C)N2)C1` [Example 32, (3aR,11aS)-5-(2-((S)-2-acryloyl-6-methyl-2,5,8-triazaspiro[3.5]nonan-8-yl)ethyl)-6-fluoro-10-methyl-1-(6-methyl-4-(trifluoromethyl)pyridin-2-yl)-1,3a,4,5,10,11a-hexahydro-2H-benzo[b] pyrrolo[2,3-f][1,4] diazocine-2,11(3H)-dione], the Kinact/Kl was 420000 M⁻¹ s⁻¹.

`C=CC(=O)N1C[C@H](F)[C@@H](n2cc(CN3C[C@H]4CC(=O)N(c5cc(C(F)(F)F)cc(C)n5)[C@@H]4C(=O)N(C)c4cccc(C)c43)cn2)C1` (single isomer, unassigned) [Example 325a] returned a Kinact/Kl of 1.25e+06 M⁻¹ s⁻¹.

With `C=CC(=O)N1CC(N2CC[C@@H](CN3C[C@H]4CC(=O)N(c5cc(C(F)(F)F)cc(C)n5)[C@@H]4C(=O)N(C)c4cccc(Cl)c43)C2)C1` [Example 219, (3aR,11aS)-5-(((R)-1-(1-acryloylazetidin-3-yl)pyrrolidin-3-yl)methyl)-6-chloro-10-methyl-1-(6-methyl-4-(trifluoromethyl)pyridin-2-yl)-1,3a,4,5,10,11a-hexahydro-2H-benzo[b]pyrrolo [2,3-f][1,4] diazocine-2,11(3H)-dione], the Kinact/Kl stood at 560000 M⁻¹ s⁻¹.

`C=CC(=O)N1CC2(C1)N[C@H](C)CN(CCN1C[C@H]3CC(=O)N(c4cc(C(F)(F)F)cc(C)n4)[C@@H]3C(=O)N(C)c3cccc(F)c31)C2C` (stereo partly drawn) [Example 37a, (3aR,11aS)-5-(2-((6R,9S/R)-2-acryloyl-6,9-dimethyl-2,5,8-triazaspiro[3.5]nonan-8-yl)ethyl)-6-fluoro-10-methyl-1-(6-methyl-4-(trifluoromethyl)pyridin-2-yl)-1,3a,4,5,10,11a-hexahydro-2H-benzo[b]pyrrolo[2,3-f][1,4]diazocine-2,11(3H)-dione] showed a Kinact/Kl of 1.48e+06 M⁻¹ s⁻¹.
